Measurements as given in patent publication US9238016B2, “Antibiotic composition comprising flufenamic acid as an active ingredient” (SUNGKYUNKWAN UNIVERSITY FOUNDATION FOR CORPORATE …, priority 2010, dated 2016).
Values after ≈ are worked out from the molar mass of the structure shown.

Assays:
MRSA [1] = experiment: MICs of antibiotics against MRSA in the presence of flufenamic acid (synergy); assay type: cell-based, Staphylococcus aureus; conditions: for susceptibility of MRSA to the antibiotic in the presence of FLF: with FLF (FIG. 4B, 4C)
S. aureus MSSA = experiment: MIC by broth dilution method; assay type: cell-based; conditions: Staphylococcus aureus, 24 hours of incubation
E. faecium = experiment: MIC by broth dilution method; assay type: cell-based; conditions: Enterococcus faecium, 24 hours of incubation
Method: (§1) FLF was examined for inhibitory activity against various bacteria. Staphylococcus epidermidis, Bacillus subtilis, Listeria monocytogenes and Enterococcus faecium were cultured overnight and 200-fold diluted in 2 mL of LB containing various concentrations of FLF. Cell densities were determined by measuring the OD at 600 nm after incubation at 37° C. for 8 hours. The MICs of FLF were determined using a broth dilution method. In brief, bacteria were inoculated into LB containing serially diluted concentrations of FLF in 96-well microplates. After 24 hours of incubation, bacterial growth was examined. Antibacterial activity of FLF was tested over various Gram-positive bacteria including Staphylococcus epidermidis, Bacillus subtilis, Listeria monocytogenes, and Enterococcus faecium.

L. monocytogenes = experiment: MIC by broth dilution method; assay type: cell-based; conditions: Listeria monocytogenes, 24 hours of incubation
Method: as §1

B. subtilis = experiment: MIC by broth dilution method; assay type: cell-based; conditions: Bacillus subtilis, 24 hours of incubation
Method: as §1

S. epidermidis = experiment: MIC by broth dilution method; assay type: cell-based; conditions: Staphylococcus epidermidis, 24 hours of incubation
Method: as §1

MRSA [2] = experiment: Screening of Prestwick chemical library for inhibitory activity against bacteria; assay type: cell-based, S. aureus; conditions: 100 μg/mL, 24 hours
Method: To screen compounds having inhibitory activity against bacteria, MRSA was 200-fold diluted in 0.2 mL of LB in 96-well microplates and cultured overnight at 37° C. with agitation at 180 RPM. Prestwick chemical library was added at a final concentration of 100 μg/mL per well. The microplates were incubated at 37° C. for 24 hours with agitation at 180 RPM and the optical density at 600 nm was measured.

SA1606 [3] = target: T1, SA1606 (Staphylococcus aureus, UniProt Q2FXE2); experiment: Aldo-keto reductase enzymatic assay (NADPH absorbance 340 nm, methylglyoxal); assay type: biochemical, S. aureus; conditions: 0.5 mM NADPH, 5 mM methylglyoxal, 10 μM enzyme, pH 7.0
T1 sequence (Q2FXE2 1-277 N135K/V136A/R184H/A227G/T230I/K274T): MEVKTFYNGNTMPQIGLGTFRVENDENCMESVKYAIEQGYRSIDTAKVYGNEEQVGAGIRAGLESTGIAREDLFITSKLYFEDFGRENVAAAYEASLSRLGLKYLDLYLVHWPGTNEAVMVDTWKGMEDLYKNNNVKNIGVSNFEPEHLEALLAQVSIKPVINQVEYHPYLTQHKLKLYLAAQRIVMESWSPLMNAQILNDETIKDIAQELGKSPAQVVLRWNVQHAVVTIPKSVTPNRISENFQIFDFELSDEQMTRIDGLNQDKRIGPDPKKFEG
Method: (§2) Aldo-keto reductase (AKR) activity was measured to examine whether FLF inhibits the enzymatic activities of SA1606 and SA2001 on the basis of the data of Example 8 showing the binding of FLF to SA16006 and SA2001. On the whole, bacterial AKR catalyzes the reduction of various chemicals with NADPH. […] As is evidenced in Example 6, SA1606 and SA2001 have structural and functional similarity with the human aldo-keto reductase AKR1C3 and the bacterial aldo-keto reductase DkgA. Thus, the enzymatic activity of […] was measured to analyze the inhibitory activity of FLF. The reaction for evaluating enzymatic activity was comprised of 0.5 mM NADPH, 5 mM methylglyoxal and 10 μM aldo-keto reductase in 50 mM sodium phosphate buffer, pH 7.0. Absorbance at 340 nm of the reaction was measured for 10 min to calculate the consumption of NADPH.

SA2001 [4] = target: T2, SA2001 (Staphylococcus aureus, UniProt Q2FW57); experiment: as above; assay type: biochemical, S. aureus; conditions: 0.5 mM NADPH, 5 mM methylglyoxal, 10 μM enzyme, pH 7.0
T2 sequence (Q2FW57 1-279 N2D): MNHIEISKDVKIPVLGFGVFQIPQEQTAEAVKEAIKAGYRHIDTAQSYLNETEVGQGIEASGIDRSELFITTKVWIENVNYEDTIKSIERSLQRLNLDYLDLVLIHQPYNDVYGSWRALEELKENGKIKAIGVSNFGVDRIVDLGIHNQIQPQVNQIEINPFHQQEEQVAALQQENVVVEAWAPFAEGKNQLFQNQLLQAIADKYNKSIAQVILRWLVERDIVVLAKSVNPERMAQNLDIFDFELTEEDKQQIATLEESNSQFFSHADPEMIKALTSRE
Method: as §2

S. aureus MRSA = experiment: MIC by broth dilution method; assay type: cell-based, Staphylococcus aureus
Method: (§3) FLF was assayed for inhibitory activity against Methicillin-resistant staphylococcus aureus (MRSA). In this regard, Methicillin-resistant Staphylococcus aureus (MRSA) was cultured overnight and 200-fold diluted in 2 mL of LB containing various concentrations of FLF. After additional incubation at 37° C. for 8 hours, cell densities were measured by recoding OD at 600 nm.
as §1

Enterococcus faecium = experiment: Growth inhibition, cell density OD 600 nm; assay type: cell-based; conditions: 20~40 μg/mL FLF, 8 hours
Method: as §1

Listeria monocytogenes = experiment: Growth inhibition, cell density OD 600 nm; assay type: cell-based; conditions: 20~40 μg/mL FLF, 8 hours
Method: as §1

[5] = system: Staphylococcus epidermidis; experiment: Growth inhibition, cell density OD 600 nm; assay type: cell-based; conditions: 20~40 μg/mL FLF, 8 hours
Method: as §1

Bacillus subtilis = experiment: Growth inhibition, cell density OD 600 nm; assay type: cell-based; conditions: 20~40 μg/mL FLF, 8 hours
Method: as §1

[6] = system: Methicillin-resistant Staphylococcus aureus (MRSA); experiment: Growth inhibition, cell density OD 600 nm; assay type: cell-based; conditions: 8 h, read-out: growth inhibited
Method: as §3

SA1606 [7] = target: T1, SA1606; experiment: Binding affinity by isothermal titration calorimetry; design: species or system S. aureus; conditions: ITC, 10 mM HEPES pH 7.0, 3% DMSO; read-out: dissociation constant (Kd)
Source text: (§4) Genes of SA1606 (GenBank number: BAB42874) and […] (GenBank number: BAB43292) were amplified using PCR with the genomic DNA of S. aureus N315 serving as a template. PCR primers were 5′-[…] […]-3′ (SEQ ID NO: 4) and 5′-[…]-3′ (SEQ ID NO: 5) for SA1606, and 5′-[…]-3′ (SEQ ID NO: 6) and 5′-5 […]-3′ (SEQ ID NO: 7) for SA2001. Ncol and Xhol restriction sites were incorporated into the forward primer sequences and the reverse primer sequences, respectively. The PCR products were digested with Ncol and Xhol and inserted into Ncol/Xhol-digested pET28a vectors (Novagen). The DNAs 10 thus ligated were transformed into E. coli BL21 DE3 (Invitrogen). Coding sequences of the cloned genes SA1606 and SA2001 were confirmed by nucleotide sequencing. Recombinant SA1606 and SA2001 with histidine tag at the C-terminus were expressed in E. coli and then loaded into Hi-Trap chelating 15 columns (GE Healthcare) equilibrated with buffer A (20 mM HEPES, pH 7.5, 50 mM imadazole and 500 mM NaCl). […]
(§5) Binding affinity for SA1606 and SA2001 of FLF was measured using VP-ITC Micro calorimeter (MicroCal Inc). […] Thereafter, the affinity of FLF for the proteins were calculated on the basis of the heat generated upon the binding of FLF to the proteins. The data was analyzed with ORIGIN software (MicroCal Inc).

SA2001 [8] = target: T3, SA2001 (Staphylococcus aureus, UniProt Q2FW57, N2D); experiment: as above; design: species or system S. aureus; conditions: ITC, 10 mM HEPES pH 7.0, 3% DMSO; read-out: dissociation constant (Kd)
T3 sequence (Q2FW57 1-279 N2D): T2 sequence (Q2FW57 1-279 N2D)
Source text: as §4, §5

Compound: Cc1onc(-c2ccccc2)c1C(=O)N[C@@H]1C(=O)N2[C@@H]1SC(C)(C)[C@@H]2C(=O)O [Oxacillin]
- MICs of antibiotic against MRSA (MRSA [1]; 10 μg/ml FLF): 256 µg/mL
- MICs of antibiotic against MRSA (MRSA [1]; 30 μg/ml FLF): 32 µg/mL
- MICs of antibiotic against MRSA (MRSA [1]; 40 μg/ml FLF): 8 µg/mL
- MICs of antibiotic against MRSA (MRSA [1]; No FLF): >256 µg/mL
- susceptibility of MRSA to the antibiotic in the presence of FLF (MRSA [1]): far more susceptible

Compound: CC(=O)OCC1=C(C(=O)O)N2C(=O)[C@@H](NC(=O)Cc3cccs3)[C@H]2SC1 [Cephalothin]
- MICs of antibiotic against MRSA (MRSA [1]; 10 μg/ml FLF): 128 µg/mL
- MICs of antibiotic against MRSA (MRSA [1]; 20 μg/ml FLF): 64 µg/mL
- MICs of antibiotic against MRSA (MRSA [1]; 30 μg/ml FLF): 16 µg/mL
- MICs of antibiotic against MRSA (MRSA [1]; 40 μg/ml FLF): 4 µg/mL
- MICs of antibiotic against MRSA (MRSA [1]; No FLF): 128 µg/mL
- susceptibility of MRSA to the antibiotic in the presence of FLF (MRSA [1]): far more susceptible

Compound: CCn1cc(C(=O)O)c(=O)c2cc(F)c(N3CCNCC3)cc21 [Norfloxacin]
- MICs of antibiotic against MRSA (MRSA [1]; 10 μg/ml FLF): 64 µg/mL
- MICs of antibiotic against MRSA (MRSA [1]; 20 μg/ml FLF): 32 µg/mL
- MICs of antibiotic against MRSA (MRSA [1]; 30 μg/ml FLF): 16 µg/mL
- MICs of antibiotic against MRSA (MRSA [1]; 40 μg/ml FLF): 8 µg/mL
- MICs of antibiotic against MRSA (MRSA [1]; No FLF): 128 µg/mL

Compound: O=C(O)c1ccccc1Nc1cccc(C(F)(F)F)c1 [FLF, flufenamic acid]
- MIC (S. aureus MSSA): 64 µg/mL (≈ 228 µM)
- MIC (E. faecium): 32 µg/mL (≈ 114 µM)
- MIC (L. monocytogenes): 32 µg/mL (≈ 114 µM)
- MIC (B. subtilis): 32 µg/mL (≈ 114 µM)
- MIC (S. epidermidis): 64 µg/mL (≈ 228 µM)
- synergistic effect with classical antibiotics (MRSA [1]; FLF in combination with Norfloxacin, Oxacillin or Cephalothin, MRSA): synergistically inhibited
- inhibitory activity against bacteria (OD 600 nm) in library screen (MRSA [2]): most inhibitory
- enzymatic activity (reduction of methylglyoxal with NADPH) in the presence of FLF (SA1606 [3]): inhibited
- enzymatic activity (reduction of methylglyoxal with NADPH) in the presence of FLF (SA2001 [4]): inhibited
- MICs (S. aureus MRSA; S. aureus MRSA, 24 hours of incubation): 64 µg/mL
- MIC (S. aureus MRSA; Staphylococcus aureus, MRSA, 24 h, read-out: MICs): 64 µg/mL (≈ 228 µM)
- growth inhibited (Enterococcus faecium): 90%
- growth inhibited (Listeria monocytogenes): 90%
- growth inhibited [5]: 90%
- growth inhibited (Bacillus subtilis): 90%
- inhibition at 40 µg/mL [6]: 90%
- Kd (SA1606 [7]): 14.5 µM
- Kd (SA2001 [8]): 38.1 µM
